Experimental data reported in the supplement of paper PMC4862054.

Legend:
Conditions in all cases: incubation time: 72 h
[1] = tested on: BT-474; test: normalised response (% of control), CellTox Green; higher = less cell death (100 = DMSO, 0 = benzethonium chloride kill control)
Summary of the method: (§1)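 Breast cancer cell lines, seeded at 20 µl suspension per well, were incubated for 72 h in 384-well plates containing compound at 5 concentrations. These concentrations rose in 10-fold steps over a 10,000-fold range set for each compound. CellTox Green fluorescence (485/520 nm) was read, then CellTiter-Glo luminescence after 10 min at room temperature, and each plate was normalised to 0.1 % DMSO (100) and a positive kill control (0). Values are normalised signals, each at one concentration.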

[2] = tested on: BT-549; test: as above
Summary of the method: as §1

[3] = tested on: CAL-120; test: as above
Summary of the method: as §1

[4] = tested on: CAL-148; test: as above
Summary of the method: as §1

[5] = tested on: CAL-51; test: as above
Summary of the method: as §1

[6] = tested on: CAL-85-1; test: as above
Summary of the method: as §1

[7] = tested on: DU-4475; test: as above
Summary of the method: as §1

[8] = tested on: HCC1143; test: as above
Summary of the method: as §1

[9] = tested on: HCC1599; test: as above
Summary of the method: as §1

[10] = tested on: HCC1937; test: as above
Summary of the method: as §1

[11] = tested on: HDQ-P1; test: as above
Summary of the method: as §1

[12] = tested on: Hs578T; test: as above
Summary of the method: as §1

[13] = tested on: MCF-10A; test: as above
Summary of the method: as §1

[14] = tested on: MDA-MB-231; test: as above
Summary of the method: as §1

[15] = tested on: MDA-MB-436; test: as above
Summary of the method: as §1

[16] = tested on: MDA-MB-453; test: as above
Summary of the method: as §1

[17] = tested on: MDA-MB-468; test: as above
Summary of the method: as §1

[18] = tested on: MFM-223; test: as above
Summary of the method: as §1

[19] = tested on: BT-474; test: normalised response (% of control), CellTiter-Glo; higher = more viable cells (100 = DMSO, 0 = benzethonium chloride kill control)
Protocol: (§2)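 DSRT, 72 h incubation, CellTox Green / CellTiter-Glo readout. Signal is normalised to DMSO and benzethonium chloride controls. Value is the normalised response at dose 3.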

[20] = tested on: BT-549; test: as above
Protocol: as §2

[21] = tested on: CAL-120; test: as above
Protocol: as §2

[22] = tested on: CAL-148; test: as above
Protocol: as §2

[23] = tested on: CAL-51; test: as above
Protocol: as §2

[24] = tested on: CAL-85-1; test: as above
Protocol: as §2

[25] = tested on: DU-4475; test: as above
Protocol: as §2

[26] = tested on: HCC1143; test: as above
Protocol: as §2

[27] = tested on: HCC1599; test: as above
Protocol: as §2

[28] = tested on: HCC1937; test: as above
Protocol: as §2

[29] = tested on: HDQ-P1; test: as above
Protocol: as §2

[30] = tested on: Hs578T; test: as above
Protocol: as §2

[31] = tested on: MCF-10A; test: as above
Protocol: as §2

[32] = tested on: MDA-MB-231; test: as above
Protocol: as §2

[33] = tested on: MDA-MB-436; test: as above
Protocol: as §2

[34] = tested on: MDA-MB-453; test: as above
Protocol: as §2

[35] = tested on: MDA-MB-468; test: as above
Protocol: as §2

[36] = tested on: MFM-223; test: as above
Protocol: as §2

[37] = tested on: SK-BR-3; test: as above
Protocol: as §2

Compound | normalised response [1] [%] | normalised response [2] [%] | normalised response [3] [%] | normalised response [4] [%] | normalised response [5] [%] | normalised response [6] [%] | normalised response [7] [%] | normalised response [8] [%] | normalised response [9] [%] | normalised response [10] [%] | normalised response [11] [%] | normalised response [12] [%] | normalised response [13] [%] | normalised response [14] [%] | normalised response [15] [%] | normalised response [16] [%] | normalised response [17] [%] | normalised response [18] [%] | normalised response [19] [%] | normalised response [20] [%] | normalised response [21] [%] | normalised response [22] [%] | normalised response [23] [%] | normalised response [24] [%] | normalised response [25] [%] | normalised response [26] [%] | normalised response [27] [%] | normalised response [28] [%] | normalised response [29] [%] | normalised response [30] [%] | normalised response [31] [%] | normalised response [32] [%] | normalised response [33] [%] | normalised response [34] [%] | normalised response [35] [%] | normalised response [36] [%] | normalised response [37] [%]
CC(C)C[C@H](NC(=O)[C@H](Cc1ccccc1)NC(=O)c1cnccn1)B(O)O [Bortezomib] (10 nM) | 92 | 97.2 | 88 | 87.2 | 110 | 16.3 | 111 | 105 | 101 | 61.9 | 75.7 | 71 | 74.6 | 70.5 | 72.3 | 109 | -99.2 | 82 | 44.5 | 10.1 | 74.6 | 98.8 | 96.8 | 12.3 | 88.6 | 74.7 | 89.7 | 64.8 | 61.7 | 66 | 113 | 69.3 | 35.6 | 69.2 | 2.63 | 17.6 | 30
CS(=O)(=O)OCCCCOS(C)(=O)=O [Busulfan] (1000 nM) | 100 | 96.5 | 97.8 | 96.1 | 109 | 101 | 101 | 97.8 | 103 | 107 | 83.3 | 105 | 59.8 | 104 | 90.6 | 103 | 121 | 102 | 98.9 | 109 | 102 | 107 | 90.4 | 104 | 108 | 105 | 98.9 | 96.2 | 103 | 108 | 108 | 105 | 94.2 | 111 | 97.2 | 106 | 110
COc1cccc2c1C(=O)c1c(O)c3c(c(O)c1C2=O)C[C@@](O)(C(C)=O)C[C@@H]3O[C@H]1C[C@H](N)[C@H](O)[C@H](C)O1 [Daunorubicin] (10 nM) | 102 | 104 | 102 | 91.5 | 91.5 | 98.8 | 103 | 104 | 98.9 | 106 | 106 | 111 | 104 | 76 | 93.4 | 107 | 90.3 | 105 | 102 | 103 | 103 | 99.3 | 87.2 | 100 | 106 | 97 | 99.1 | 93.2 | 96.5 | 104 | 105 | 103 | 99.4 | 110 | 84.2 | 105 | 112
CN1CCN(c2ccc3nc(-c4c(N)c5c(F)cccc5[nH]c4=O)[nH]c3c2)CC1 [Dovitinib] (100 nM) | 96.5 | 95.3 | 96 | 85.1 | 107 | 90.3 | 100 | 97.1 | 108 | 89.1 | 115 | 93.3 | 102 | 89.5 | 72.4 | 101 | 87.8 | 105 | 104 | 103 | 93.9 | 99.7 | 107 | 94.7 | 97.1 | 103 | 94.2 | 94.8 | 97.3 | 101 | 99.1 | 92.4 | 96.5 | 100 | 97.3 | 100 | 94.7
O=c1[nH]cc(F)c(=O)[nH]1 [Fluorouracil] (100 nM) | 93 | 96.8 | 100 | 102 | 113 | 114 | 106 | 92.6 | 103 | 103 | 105 | 101 | 114 | 111 | 51.5 | 106 | 99.4 | 106 | 103 | 109 | 107 | 111 | 105 | 98.3 | 102 | 109 | 116 | 95.6 | 102 | 105 | 113 | 111 | 105 | 116 | 98 | 104 | 104
Cn1cnc2c(F)c(Nc3ccc(Br)cc3F)c(C(=O)NOCCO)cc21 [MEK-162] (10 nM) | 90.8 | 82.7 | 97.6 | 103 | 112 | 99.8 | 97.6 | 73 | 93 | 78.5 | 102 | 108 | 68.5 | 81.9 | 99.8 | 104 | 125 | 102 | 103 | 94.5 | 97.9 | 101 | 114 | 95.2 | 92.9 | 94.8 | 93.8 | 90.8 | 88.9 | 90.5 | 70.8 | 99.3 | 103 | 105 | 93 | 99.4 | 101
CCOc1cc2ncc(C#N)c(Nc3ccc(OCc4ccccn4)c(Cl)c3)c2cc1NC(=O)/C=C/CN(C)C [Neratinib] (10 nM) | 93.4 | 111 | 104 | 104 | 110 | 112 | 108 | 103 | 104 | 102 | 98.1 | 88.5 | 116 | 120 | 54.2 | 108 | 126 | 94.8 | 101 | 97.9 | 104 | 101 | 91.5 | 102 | 105 | 97.3 | 112 | 95.1 | 83.5 | 99.2 | 98.1 | 100 | 99.7 | 78.3 | 91.7 | 101 | 37.4
COc1ccc(C2=N[C@@H](c3ccc(Cl)cc3)[C@@H](c3ccc(Cl)cc3)N2C(=O)N2CCNC(=O)C2)c(OC(C)C)c1 [Nutlin-3] (100 nM) | 71.6 | 99 | 102 | 97.2 | 97.1 | 102 | 102 | 109 | 102 | 87.5 | 97.3 | 101 | 103 | 100 | 64 | 97.3 | 100 | 95.2 | 101 | 107 | 99.5 | 115 | 64 | 92.4 | 104 | 105 | 105 | 95.4 | 99.9 | 103 | 96.7 | 102 | 102 | 108 | 100 | 102 | 104
